Reference: ChEMBL document CHEMBL4342527, “Discovery of Novel Fungal Lanosterol 14α-Demethylase (CYP51)/Histone Deacetylase Dual Inhibitors to Treat Azole-Resistant Candidiasis” (J Med Chem, 2020)
pIC50: −log10 of the molar value. Values after ≈ are worked out from the molar mass of the structure shown. Active and inactive are the calls of the source. No cut-off for these calls is given here.

Legend:
Candida albicans [1] = assay: Inhibition of HDAC in azole-resistant Candida albicans 0304103 assessed as reduction in CDR1 gene expression at 32 ug/ml after 16 hrs by SYBR Green-1 dye based RT-PCR analysis; settings: 304103
Candida albicans [2] = assay: Inhibition of yeast to hypha transition in azole resistant Candida albicans 0304103 assessed as down regulation of TEC1 gene expression at 32 ug /ml after 16 hrs by SYBR Green I dye based RT-PCR analysis; assay type: functional, organism-based
[3] = target: T1, Protein deacetylase HDAC6 (Homo sapiens, UniProt Q9UBN7); assay: Inhibition of HDAC6 (unknown origin) after 30 mins by fluorescence based assay
T1 sequence (Q9UBN7 whole entry): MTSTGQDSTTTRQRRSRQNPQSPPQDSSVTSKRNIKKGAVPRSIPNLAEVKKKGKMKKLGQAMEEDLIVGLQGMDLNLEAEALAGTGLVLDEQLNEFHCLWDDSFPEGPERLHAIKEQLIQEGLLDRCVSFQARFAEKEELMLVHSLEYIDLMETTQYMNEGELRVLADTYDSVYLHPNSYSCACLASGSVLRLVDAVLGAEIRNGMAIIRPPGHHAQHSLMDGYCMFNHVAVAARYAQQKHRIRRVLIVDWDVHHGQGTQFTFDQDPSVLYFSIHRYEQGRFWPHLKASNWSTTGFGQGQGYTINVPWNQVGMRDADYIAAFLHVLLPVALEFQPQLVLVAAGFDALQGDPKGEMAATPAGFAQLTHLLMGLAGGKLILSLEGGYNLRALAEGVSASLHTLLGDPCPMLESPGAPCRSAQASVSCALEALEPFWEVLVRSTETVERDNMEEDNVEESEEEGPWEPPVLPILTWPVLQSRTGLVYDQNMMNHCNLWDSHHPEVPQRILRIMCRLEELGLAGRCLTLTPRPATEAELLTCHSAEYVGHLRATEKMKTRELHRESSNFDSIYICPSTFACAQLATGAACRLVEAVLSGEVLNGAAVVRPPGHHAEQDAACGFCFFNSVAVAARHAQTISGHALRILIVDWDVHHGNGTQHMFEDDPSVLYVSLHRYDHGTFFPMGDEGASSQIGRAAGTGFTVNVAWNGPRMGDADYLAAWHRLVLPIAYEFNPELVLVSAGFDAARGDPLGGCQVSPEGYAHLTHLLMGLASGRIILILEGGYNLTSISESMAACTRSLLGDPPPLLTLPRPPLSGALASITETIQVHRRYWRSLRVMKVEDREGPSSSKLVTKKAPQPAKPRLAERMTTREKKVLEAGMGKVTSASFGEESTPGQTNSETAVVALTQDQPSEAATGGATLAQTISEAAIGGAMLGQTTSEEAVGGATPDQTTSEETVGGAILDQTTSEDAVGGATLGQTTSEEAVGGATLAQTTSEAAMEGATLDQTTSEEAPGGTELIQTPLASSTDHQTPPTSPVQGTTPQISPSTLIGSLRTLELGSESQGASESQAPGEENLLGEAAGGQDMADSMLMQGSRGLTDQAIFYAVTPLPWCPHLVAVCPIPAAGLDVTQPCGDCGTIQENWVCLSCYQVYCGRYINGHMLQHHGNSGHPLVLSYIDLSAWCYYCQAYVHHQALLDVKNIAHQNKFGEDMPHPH

[4] = target: T2, Lanosterol 14-alpha demethylase (Candida albicans (strain SC5314 / ATCC MYA-2876) (Yeast), UniProt P10613); assay: Inhibition of CYP51 in azole-resistant Candida albicans 0304103 assessed as lanosterol level at 0.5 ug/ml after 24 hrs by GC-MS analysis (reference value: 4.15%); set-up: scale not given: the % may be the effect or the level left
Candida albicans [5] = assay: Inhibition of biofilm formation in azole resistant Candida albicans 0304103 after 24 hrs by XTT assay; assay type: functional, organism-based
[6] = Selectivity index, ratio of IC50 for HUVEC to MIC80 for azole-resistant Candida albicans 0304103; assay type: toxicity; settings: human
[7] = target: T2, Lanosterol 14-alpha demethylase; assay: Inhibition of CYP51 in azole-resistant Candida albicans 0304103 assessed as ergosterol content at 0.5 ug/ml after 24 hrs by GC-MS analysis (reference value: 75.21%); set-up: scale not given: the % may be the effect or the level left
Candida albicans [8] = assay: Antifungal activity against azole-resistant Candida albicans 0304103 infected in ICR mouse assessed as inhibition of filamentation at 20 mg/kg, ip qd for 5 days and measured on day 6 by periodic acid schiff staining-based histological analysis; assay type: functional, organism-based
Candida albicans [9] = assay: Antifungal activity against azole-resistant Candida albicans 0304103 infected in ICR mouse assessed as inhibition of filamentation at 20 mg/kg, po qd for 5 days and measured on day 6 by periodic acid schiff staining-based histological analysis; assay type: functional, organism-based
[10] = target: T2, Lanosterol 14-alpha demethylase; assay: Inhibition of CYP51 in azole-resistant Candida albicans 0304103 assessed as reduction in ERG11 gene expression at 32 ug/ml after 16 hrs by SYBR Green-1 dye based RT-PCR analysis; set-up: species or system 304103
Histone deacetylase 1 = Histone deacetylase 1 (Homo sapiens, UniProt Q13547); assay: Inhibition of HDAC1 (unknown origin) after 30 mins by fluorescence based assay
Candida albicans [11] = assay: Antifungal activity against azole-resistant Candida albicans 0304103 infected in ICR mouse assessed as mean survival time at 20 mg/kg, ip qd for 5 days (reference value: 10 days); assay type: functional
Candida albicans [12] = assay: Antifungal activity against azole-resistant Candida albicans 0304103 infected in ICR mouse assessed as inhibition of fungal infection in kidney at 20 mg/kg, po qd for 5 days and measured on day 6 by periodic acid schiff staining-based histological analysis; assay type: functional, organism-based
[13] = Selectivity index, ratio of IC50 for human A549 cells to MIC80 for azole-resistant Candida albicans 4108; assay type: toxicity
Candida albicans [14] = assay: Inhibition of HDAC in azole-resistant Candida albicans 0304103 assessed as reduction in CDR2 gene expression at 32 ug/ml after 16 hrs by SYBR Green-1 dye based RT-PCR analysis; settings: 304103
Candida albicans [15] = assay: Antifungal activity against azole-resistant Candida albicans 4108 after 48 hrs by spectrophotometry-based serial microdilution method; assay type: functional; settings: Candida albicans, 4108, 48 h
Cryptococcus neoformans = assay: Antifungal activity against azole-sensitive Cryptococcus neoformans H99 after 72 hrs by spectrophotometry-based serial microdilution method; assay type: functional, var grubii H99; settings: Cryptococcus neoformans, var grubii H99 , 72 h; read-out: MIC80
Candida albicans [16] = assay: Antifungal activity against azole-resistant Candida albicans 0304103 infected in ICR mouse assessed as reduction in fungal burden in kidney by measuring colony forming units at 20 mg/kg, ip qd for 5 days measured 24 hrs post-last dose (reference value: 6.89 log10CFU/g); assay type: functional
Histone deacetylase = assay: Inhibition of HDAC in HUVEC using Boc-Lys(Ac)-AMC as substrate preincubated for 12 hrs followed by substrate addition and measured after 4 hrs by fluorimetry; assay type: ADME, cell-based, Homo sapiens
[17] = Selectivity index, ratio of IC50 for human A549 cells to MIC80 for azole-resistant Candida albicans 7781; assay type: toxicity
Candida albicans [18] = assay: Inhibition of yeast to hypha transition in azole resistant Candida albicans 0304103 assessed as down regulation of EFG1 gene expression at 32 ug /ml after 16 hrs by SYBR Green I dye based RT-PCR analysis; assay type: functional, organism-based

T2 sequence (P10613 whole entry): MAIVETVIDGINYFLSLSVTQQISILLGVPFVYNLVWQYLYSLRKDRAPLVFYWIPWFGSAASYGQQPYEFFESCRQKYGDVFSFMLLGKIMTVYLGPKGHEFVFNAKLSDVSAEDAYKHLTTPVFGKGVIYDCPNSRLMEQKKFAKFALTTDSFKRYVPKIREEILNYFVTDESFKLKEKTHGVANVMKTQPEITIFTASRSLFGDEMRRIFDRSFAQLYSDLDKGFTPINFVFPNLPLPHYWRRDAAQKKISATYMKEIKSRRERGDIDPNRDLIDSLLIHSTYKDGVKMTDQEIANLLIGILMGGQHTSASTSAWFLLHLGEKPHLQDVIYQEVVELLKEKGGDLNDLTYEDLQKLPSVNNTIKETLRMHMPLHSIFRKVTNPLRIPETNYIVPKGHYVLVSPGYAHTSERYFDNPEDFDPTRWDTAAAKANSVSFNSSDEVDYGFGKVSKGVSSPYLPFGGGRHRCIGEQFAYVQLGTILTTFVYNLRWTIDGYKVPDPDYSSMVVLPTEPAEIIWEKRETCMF
Sequence of Histone deacetylase 1 (Q13547 whole entry): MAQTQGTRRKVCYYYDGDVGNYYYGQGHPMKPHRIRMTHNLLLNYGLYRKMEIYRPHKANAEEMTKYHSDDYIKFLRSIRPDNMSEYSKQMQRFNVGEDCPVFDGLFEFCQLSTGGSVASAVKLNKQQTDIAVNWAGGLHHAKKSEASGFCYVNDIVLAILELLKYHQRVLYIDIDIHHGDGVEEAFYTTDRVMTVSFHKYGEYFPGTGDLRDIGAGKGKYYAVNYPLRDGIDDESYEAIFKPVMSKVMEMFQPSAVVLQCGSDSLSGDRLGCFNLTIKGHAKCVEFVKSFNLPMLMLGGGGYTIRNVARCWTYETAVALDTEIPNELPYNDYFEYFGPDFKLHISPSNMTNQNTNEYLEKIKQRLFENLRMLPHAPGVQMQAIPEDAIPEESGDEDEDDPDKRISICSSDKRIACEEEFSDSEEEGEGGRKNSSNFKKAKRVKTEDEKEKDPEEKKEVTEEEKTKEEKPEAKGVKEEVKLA

| Structure (SMILES) | inhibition (Candida albicans [1]) | inhibition (Candida albicans [2]) | pIC50 [3] | Activity [4] [%] | inhibition (Candida albicans [5]) | selectivity ratio [6] | Activity [7] [%] | inhibition (Candida albicans [8]) | inhibition (Candida albicans [9]) | inhibition (INH) [10] | pIC50 (Histone deacetylase 1) | MST (Candida albicans [11]) [days] | inhibition (Candida albicans [12]) | selectivity ratio [13] | inhibition (Candida albicans [14]) | MIC80 (Candida albicans [15]) [µg/mL] | MIC80 (Cryptococcus neoformans) [µg/mL] | Activity (Candida albicans [16]) [log10CFU/g] | IC50 (Histone deacetylase) [nM] | selectivity ratio [17] | other results |
| --- | --- | --- | --- | --- | --- | --- | --- | --- | --- | --- | --- | --- | --- | --- | --- | --- | --- | --- | --- | --- | --- |
| CN(Cc1ccc(-n2cnn(CCCCc3ccc(C(=O)NO)cc3)c2=O)cc1)CC(O)(Cn1cncn1)c1ccc(F)cc1F (racemic) | Active | Active | 6.92 | 25.29 | Dose-dependent effect | 2 to 16 | 61.48 | Active | Active | Active | 6.55 | 20 | Active | 2 to 16 | Active | 8 (≈ 12.6 µM) | 2 (≈ 3.16 µM) | 4.49 | 6800 | 2 to 16 | inhibition (Candida albicans [18]): Active |
| CN(Cc1ccc(OCCCOc2ccc(CC(=O)NO)cc2)cc1)CC(O)(Cn1cncn1)c1ccc(F)cc1F (racemic) | Active | Active | 6.22 | 8.57 | Dose-dependent effect | 2 to 16 | 18.44 | Active | Active | Active | 6.16 | 16.5 | Active | 2 to 16 | Active | 0.5 (≈ 0.86 µM) | 0.5 (≈ 0.86 µM) | 6.16 | 2700 | 2 to 16 | inhibition (Candida albicans [18]): Active |
